Common to all, as to format: cell-based
Common to all, as to conditions: banded into grades

For one experiment, the system named is Aspergillus flavus. As to the kind of experiment: Measurement of Minimum Inhibitory Concentrations (MICs), A. flavus. How it is done: (§1) Between 1 and 5 mgs of compound were accurately weighed out into a sterile Eppendorf tube. The compound was dissolved in DMSO to give a solution containing 5 mg/mL. Tubes were stored at −20° C. until required. On the day of testing thawed solutions were vortex mixed to ensure homogeneity. 30 μL of solution was removed and added to 570 μL of sterile water in a separate sterile Eppendorf. The thoroughly mixed solution was used to prepare a series of doubling dilutions in water, in a deep well plate. […] replicate plates were prepared using a Minitrak by aspirating […] from each well into eleven clear polystyrene 96 well plates. Spores of Aspergillus spp. (Aspergillus fumigatus [two strains], Aspergillus terreus [two strains], Aspergillus niger and Aspergillus flavus) were harvested from cultures grown on Sabarauds agar for 5 days, and resuspended in PBS/Tween 80 to approx 1×10^7 cfu/mL. Each organism suspension was diluted in YAG medium (1% glucose, 1% ammonium chloride and 0.5% yeast extract) to 0.5-2×10^4 cfu/mL. 80 μL of an organism suspension was added to each well of the plate containing drug dilutions. This produced MIC plates with a drug range 50-0.05 mg/L and organism inocula of 1−2×10^4 cfu/mL for Aspergillus spp. All plates were incubated for 24 hrs at 35° C. Growth was assessed by monitoring the optical density at 485 nm for each well. The MIC of a compound is the lowest drug concentration that inhibits growth of an organism by >70% compared with a drug free control. MICs are recorded as mg/L. In cases where the MIC of an organism is >=0.05 mg/L the MIC is repeated using a concentration range of 0.5-0.0005 mg/L. Other growth media can be used for susceptibility testing, and the activity of the described compounds was also assessed in RPMI medium containing 2% glucose, and 0.135M MOPS buffer. MIC tests in YAG medium have more clear-cut endpoints and have slightly lower MICs than those performed in RPMI medium. The following organisms were tested: Aspergillus flavus, Aspergillus fumigatus AF293 and AF210, Aspergillus niger and Aspergillus terreus AT4 and AT49.

For experiment [1], the system named is Aspergillus fumigatus AF293. As to the kind of experiment: Measurement of Minimum Inhibitory Concentrations (MICs), A. fumigatus. As for the experimental part:
as §1

Experiment [2] deals with Aspergillus fumigatus AF210. As to the kind of experiment: Measurement of Minimum Inhibitory Concentrations (MICs), A. fumigatus 210. As for the experimental part:
as §1

In a further experiment the test system is Aspergillus niger. As to the kind of experiment: Measurement of Minimum Inhibitory Concentrations (MICs), A. niger. How it is done:
as §1

The subject of another experiment is Aspergillus terreus AT4. As to the kind of experiment: Measurement of Minimum Inhibitory Concentrations (MICs), A. terreus. As for the experimental part:
as §1

The subject of a further experiment is Aspergillus terreus AT49. As to the kind of experiment: Measurement of Minimum Inhibitory Concentrations (MICs), A. terreus 49. As for the experimental part:
as §1

Where [3] appears, read: RPMI medium containing 2% glucose, 0.135M MOPS buffer.
The mark [4] stands for this setting: YAG medium, 24 hrs at 35° C., >70% growth inhibition.

The MIC is the smallest concentration in the dilution series that meets the test's criterion for growth inhibition. High values mean weaker potency, low ones greater potency.

≈ marks a conversion by molar mass, not a printed value.

Regarding `Cc1cc(C)nc(N2CCC(O)(c3ccc(NC(=O)C(=O)c4c(-c5ccccc5)cc5n4CCCC5)cc3)CC2)c1` [Example 21, N-[4-(4-Hydroxy-4′,6′-dimethyl-3,4,5,6-tetrahydro-2H-[1,2′]bipyridinyl-4-yl)-phenyl]-2-oxo-2-(2-phenyl-5,6,7,8-tetrahydro-indolizin-3-yl)-acetamide], the MIC (in the experiment with Aspergillus flavus (setting [3]); in the experiment with Aspergillus flavus (setting [4]); in experiment [1] (setting [3]); in experiment [1] (setting [4]); in experiment [2] (setting [3]); in experiment [2] (setting [4])) was < 1 mg/L in each case. Moreover, the MIC with Aspergillus niger (setting [3]), with Aspergillus niger (setting [4]), with Aspergillus terreus AT4 (setting [3]), in the experiment with Aspergillus terreus AT4 (setting [4]), against Aspergillus terreus AT49 (setting [3]) and with Aspergillus terreus AT49 (setting [4]) was < 1 mg/L each time.
In the case of `Cc1cc(C)nc(N2CCN(c3ccc(NC(=O)C(=O)c4c(-c5ccccc5)cc5n4CCCC5)cc3C)CC2)c1` [Example 22, N-{4-[4-(4,6-Dimethyl-pyridin-2-yl)-piperazin-1-yl]-3-methyl-phenyl}-2-oxo-2-(2-phenyl-5,6,7,8-tetrahydro-indolizin-3-yl)-acetamide], the MIC (against Aspergillus flavus (setting [3]); against Aspergillus flavus (setting [4]); in experiment [1] (setting [3]); in experiment [1] (setting [4]); in experiment [2] (setting [3]); in experiment [2] (setting [4])) was < 1 mg/L in each case. The MIC against Aspergillus niger (setting [3]), against Aspergillus niger (setting [4]), in the experiment with Aspergillus terreus AT4 (setting [3]), in the experiment with Aspergillus terreus AT4 (setting [4]), in the experiment on Aspergillus terreus AT49 (setting [3]) and against Aspergillus terreus AT49 (setting [4]) was < 1 mg/L in each case.
With `COCc1cc(NC(=O)C(=O)c2c(-c3ccccc3)cc3n2CCCC3)ccc1N1CCN(c2cc(C)cc(C)n2)CC1` [Example 23, N-{4-[4-(4,6-Dimethyl-pyridin-2-yl)-piperazin-1-yl]-3-methoxymethyl-phenyl}-2-oxo-2-(2-phenyl-5,6,7,8-tetrahydro-indolizin-3-yl)-acetamide], the MIC (in the experiment with Aspergillus flavus (setting [3]); with Aspergillus flavus (setting [4]); in experiment [1] (setting [3]); in experiment [1] (setting [4]); in experiment [2] (setting [3]); in experiment [2] (setting [4])) was < 1 mg/L in each case. Also, the MIC in the experiment on Aspergillus niger (setting [3]), against Aspergillus niger (setting [4]), with Aspergillus terreus AT4 (setting [3]), against Aspergillus terreus AT4 (setting [4]), against Aspergillus terreus AT49 (setting [3]) and against Aspergillus terreus AT49 (setting [4]) was < 1 mg/L in each case.
With `COCc1cc(N2CCN(c3cc(C)cc(C)n3)CC2)ccc1NC(=O)C(=O)c1c(-c2ccccc2)cc2n1CCCC2` [Example 24, N-{4-[4-(4,6-Dimethyl-pyridin-2-yl)-piperazin-1-yl]-2-methoxymethyl-phenyl}-2-oxo-2-(2-phenyl-5,6,7,8-tetrahydro-indolizin-3-yl)-acetamide], the MIC is 1 to 10 mg/L (≈ 1.73 to 17.3 µM) against Aspergillus flavus (setting [3]); < 1 mg/L in the experiment with Aspergillus flavus (setting [4]); 1 to 10 mg/L (≈ 1.73 to 17.3 µM) in experiment [1] (setting [3]); < 1 mg/L in experiment [1] (setting [4]); 1 to 10 mg/L (≈ 1.73 to 17.3 µM) in experiment [2] (setting [3]); < 1 mg/L in experiment [2] (setting [4]). Further, the MIC in the experiment with Aspergillus niger (setting [3]) was 1 to 10 mg/L (≈ 1.73 to 17.3 µM); in the experiment on Aspergillus niger (setting [4]), < 1 mg/L; with Aspergillus terreus AT4 (setting [3]), < 1 mg/L; against Aspergillus terreus AT4 (setting [4]), < 1 mg/L; in the experiment with Aspergillus terreus AT49 (setting [3]), < 1 mg/L; with Aspergillus terreus AT49 (setting [4]), < 1 mg/L.
On to `Cc1cc(C)nc(N2CCN(c3ccc(NC(=O)C(=O)c4c(-c5ccccc5)cc5n4CCCC5)cc3COCCCN3CCN(C)CC3)CC2)c1` [Example 25, N-{4-[4-(4,6-Dimethyl-pyridin-2-yl)-piperazin-1-yl]-3-[3-(4-methyl-piperazin-1-yl)-propoxymethyl]-phenyl}-2-oxo-2-(2-phenyl-5,6,7,8-tetrahydro-indolizin-3-yl)-acetamide], for which the MIC (against Aspergillus flavus (setting [3]); in the experiment on Aspergillus flavus (setting [4]); in experiment [1] (setting [3]); in experiment [1] (setting [4]); in experiment [2] (setting [3]); in experiment [2] (setting [4])) was > 10 mg/L in each case. Further, the MIC in the experiment with Aspergillus niger (setting [3]), against Aspergillus niger (setting [4]), against Aspergillus terreus AT4 (setting [3]), in the experiment on Aspergillus terreus AT4 (setting [4]), in the experiment on Aspergillus terreus AT49 (setting [3]) and in the experiment with Aspergillus terreus AT49 (setting [4]) was > 10 mg/L in each case.
As to `Cc1cc(C)nc(N2CCN(c3ccc(NC(=O)C(=O)c4c(-c5ccccc5)cc5n4CCCC5)cc3COCCCN3CCOCC3)CC2)c1` [Example 26, N-[4-[4-(4,6-Dimethyl-pyridin-2-yl)-piperazin-1-yl]-3-(3-morpholin-4-yl-propoxymethyl)-phenyl]-2-oxo-2-(2-phenyl-5,6,7,8-tetrahydro-indolizin-3-yl)-acetamide], the MIC in the experiment on Aspergillus flavus (setting [3]) was > 10 mg/L; against Aspergillus flavus (setting [4]) it was 1 to 10 mg/L (≈ 1.45 to 14.5 µM); in experiment [1] (setting [3]), > 10 mg/L; in experiment [1] (setting [4]), > 10 mg/L; in experiment [2] (setting [3]), > 10 mg/L; in experiment [2] (setting [4]), > 10 mg/L. In addition, the MIC against Aspergillus niger (setting [3]), against Aspergillus niger (setting [4]), in the experiment with Aspergillus terreus AT4 (setting [3]), against Aspergillus terreus AT4 (setting [4]), in the experiment on Aspergillus terreus AT49 (setting [3]) and in the experiment with Aspergillus terreus AT49 (setting [4]) was > 10 mg/L each time.
Regarding `Cc1cc(C)nc(N2CCN(c3ccc(NC(=O)C(=O)c4c(-c5ccccc5)cc5n4CCCC5)cc3Cl)CC2)c1` [Example 27, N-{3-Chloro-4-[4-(4,6-dimethyl-pyridin-2-yl)-piperazin-1-yl]-phenyl}-2-oxo-2-(2-phenyl-5,6,7,8-tetrahydro-indolizin-3-yl)-acetamide], the MIC (in the experiment with Aspergillus flavus (setting [3]); with Aspergillus flavus (setting [4]); in experiment [1] (setting [3]); in experiment [1] (setting [4]); in experiment [2] (setting [3]); in experiment [2] (setting [4])) was < 1 mg/L in each case. Further, the MIC in the experiment on Aspergillus niger (setting [3]), against Aspergillus niger (setting [4]), in the experiment with Aspergillus terreus AT4 (setting [3]), with Aspergillus terreus AT4 (setting [4]), in the experiment on Aspergillus terreus AT49 (setting [3]) and in the experiment with Aspergillus terreus AT49 (setting [4]) was < 1 mg/L in each case.
`O=C(Nc1cccc2ccccc12)C(=O)c1c(-c2ccccc2)cc2n1CCCC2` [Example 28, N-Naphthalen-1-yl-2-oxo-2-(2-phenyl-5,6,7,8-tetrahydro-indolizin-3-yl)-acetamide]: the MIC against Aspergillus flavus (setting [3]) was < 1 mg/L; in the experiment on Aspergillus flavus (setting [4]), < 1 mg/L; in experiment [1] (setting [3]) it was > 10 mg/L; in experiment [1] (setting [4]), < 1 mg/L; in experiment [2] (setting [3]), > 10 mg/L; in experiment [2] (setting [4]) it was < 1 mg/L. For the same compound, the MIC with Aspergillus niger (setting [3]), against Aspergillus niger (setting [4]), in the experiment on Aspergillus terreus AT4 (setting [3]), with Aspergillus terreus AT4 (setting [4]), in the experiment with Aspergillus terreus AT49 (setting [3]) and in the experiment with Aspergillus terreus AT49 (setting [4]) was < 1 mg/L in each case.
On to `Cc1cc(C)nc(N2CCN(c3ccc(NC(=O)C(=O)c4c(-c5ccccc5)cc5n4CCCC5)cc3COCCN(C)C)CC2)c1` [Example 29, N-{3-(2-Dimethylamino-ethoxymethyl)-4-[4-(4,6-dimethyl-pyridin-2-yl)-piperazin-1-yl]-phenyl}-2-oxo-2-(2-phenyl-5,6,7,8-tetrahydro-indolizin-3-yl)-acetamide], for which the MIC against Aspergillus flavus (setting [3]) was > 10 mg/L; against Aspergillus flavus (setting [4]), > 10 mg/L; in experiment [1] (setting [3]), > 10 mg/L; in experiment [1] (setting [4]), > 10 mg/L; in experiment [2] (setting [3]), > 10 mg/L; in experiment [2] (setting [4]) it was 1 to 10 mg/L (≈ 1.58 to 15.8 µM). In addition, the MIC against Aspergillus niger (setting [3]) is 1 to 10 mg/L (≈ 1.58 to 15.8 µM); in the experiment on Aspergillus niger (setting [4]), > 10 mg/L; in the experiment with Aspergillus terreus AT4 (setting [3]), > 10 mg/L; against Aspergillus terreus AT4 (setting [4]), 1 to 10 mg/L (≈ 1.58 to 15.8 µM); against Aspergillus terreus AT49 (setting [3]), 1 to 10 mg/L (≈ 1.58 to 15.8 µM); with Aspergillus terreus AT49 (setting [4]) it was 1 to 10 mg/L (≈ 1.58 to 15.8 µM).
Take `Cc1cc(C)nc(N2CCN(c3ccc(NC(=O)C(=O)c4c(-c5ccccc5)cc5n4CCCC5)c(Cl)c3)CC2)c1` [Example 30, N-{2-Chloro-4-[4-(4,6-dimethyl-pyridin-2-yl)-piperazin-1-yl]-phenyl}-2-oxo-2-(2-phenyl-5,6,7,8-tetrahydro-indolizin-3-yl)-acetamide]: the MIC (with Aspergillus flavus (setting [3]); in the experiment with Aspergillus flavus (setting [4]); in experiment [1] (setting [3]); in experiment [1] (setting [4]); in experiment [2] (setting [3]); in experiment [2] (setting [4])) was < 1 mg/L throughout. Also, the MIC in the experiment with Aspergillus niger (setting [3]), in the experiment with Aspergillus niger (setting [4]), in the experiment on Aspergillus terreus AT4 (setting [3]), in the experiment with Aspergillus terreus AT4 (setting [4]), in the experiment with Aspergillus terreus AT49 (setting [3]) and against Aspergillus terreus AT49 (setting [4]) was < 1 mg/L each time.

(Values after patent publication US8524705B2, “2-oxo-2-(2-phenyl-5,6,7,8-tetrahydro-indolizin-3-yl)-acetamide derivatives and related compounds as antifungal agents” (F2G Limited British Body Corporate, priority 2007, dated 2013).)
